Values quoted from earlier work, collected in patent US12036313B2, “Personal lubricants comprising lambda-carrageenan” (LANVIRA, LLC, priority 2018, dated 2024).

Tested on: HPV
Conditions: in vitro and in vivo

lambda-carrageenan
Activity against HPV: active against HPV
